From paper PMC6179046, “Discovery of novel 1,3-diaryltriazene sulfonamides as carbonic anhydrase I, II, VII, and IX inhibitors” (Journal of Enzyme Inhibition and Medicinal Chemistry, 2018)

How the values were obtained:
Assay in all cases: stopped-flow CO2 hydrase assay
Format in all cases: biochemical
hCA IX = biological target: T1, hCA IX (Homo sapiens, UniProt Q16790)
T1 construct: gene CA9; recombinant, obtained as reported earlier
Source text: stopped-flow CO2 hydrase assay on hCA IX

hCA II = biological target: T2, hCA II (Homo sapiens, UniProt P00918)
T2 construct: gene CA2; recombinant, obtained as reported earlier; cytosolic isoform
Source text: stopped-flow CO2 hydrase assay on hCA II

hCA I = biological target: T3, hCA I (Homo sapiens, UniProt P00915)
T3 construct: gene CA1; recombinant, obtained as reported earlier; cytosolic isoform
Source text: stopped-flow CO2 hydrase assay on hCA I

hCA VII = biological target: T4, hCA VII (Homo sapiens, UniProt P43166)
T4 construct: gene CA7; recombinant, obtained as reported earlier; cytosolic isoform
Source text: stopped-flow CO2 hydrase assay on hCA VII

T3 sequence (P00915 2-261): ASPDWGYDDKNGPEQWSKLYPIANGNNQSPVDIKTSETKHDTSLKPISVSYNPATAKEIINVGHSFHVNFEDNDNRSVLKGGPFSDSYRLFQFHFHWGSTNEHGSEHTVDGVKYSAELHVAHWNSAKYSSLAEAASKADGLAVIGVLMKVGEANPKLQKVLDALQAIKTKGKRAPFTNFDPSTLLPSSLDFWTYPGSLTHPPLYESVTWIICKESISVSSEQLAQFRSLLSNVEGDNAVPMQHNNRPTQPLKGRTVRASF
T4 sequence (P43166 whole entry, canonical isoform): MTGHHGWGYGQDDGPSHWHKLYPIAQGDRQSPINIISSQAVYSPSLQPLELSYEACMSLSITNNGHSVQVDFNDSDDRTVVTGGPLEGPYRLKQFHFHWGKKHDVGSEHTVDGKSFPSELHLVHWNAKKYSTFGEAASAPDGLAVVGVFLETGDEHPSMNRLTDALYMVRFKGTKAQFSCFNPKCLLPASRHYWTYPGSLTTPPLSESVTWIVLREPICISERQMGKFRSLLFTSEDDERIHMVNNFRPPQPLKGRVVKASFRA

Row | SMILES | Ki (hCA IX) [nM] | Ki (hCA II) [nM] | Ki (hCA I) [nM] | Ki (hCA VII) [nM]
1 | N#Cc1ccc(NN=Nc2cccc(S(N)(=O)=O)c2)cc1 [4c, 3–(3-(4-cyanophenyl)triaz-1-en-1-yl) benzenesulfonamide] | 8960 ± 348 | 605 ± 34 | 501 ± 31 | 7900 ± 456
2 | COc1ccc(/N=N/Nc2cccc(S(N)(=O)=O)c2)cc1 [4e, 3–(3-(4-methoxyphenyl)triaz-1-en-1-yl) benzenesulfonamide] | 7230 ± 159 | 877 ± 62 | 416 ± 32 | 5760 ± 324
3 | COc1ccc(/N=N/Nc2cccc(S(N)(=O)=O)c2)cc1OC [4g, 3–(3-(3,4-dimethoxyphenyl)triaz-1-en-1-yl)benzenesulfonamide] | 84.9 ± 4.5 | 6460 ± 310 | 3850 ± 179 | 2560 ± 129
4 | NS(=O)(=O)c1cccc(N=NNc2ccc(Cl)c(Cl)c2)c1 [4h, 3–(3-(3,4-dichlorophenyl)triaz-1-en-1-yl)benzenesulfonamide] | 9270 ± 451 | 9190 ± 504 | 8370 ± 601 | 7830 ± 418
5 | NS(=O)(=O)c1cccc(N/N=N/c2ccc(C(=O)O)cc2)c1 [4b, 4–(3-(3-sulfamoylphenyl)triaz-2-en-1-yl) benzoic acide] | 835 ± 47 | 68.7 ± 5.1 | 92.3 ± 7.1 | 967 ± 54
6 | Cc1cc(C)cc(NN=Nc2cccc(S(N)(=O)=O)c2)c1 [4f, 3–(3-(3,5-dimethylphenyl)triaz-1-en-1-yl)benzenesulfonamide] | 50.8 ± 3.6 | 4.3 ± 0.2 | 277 ± 18 | 15.6 ± 0.9
7 | NS(=O)(=O)c1cccc(/N=N/Nc2ccc(F)cc2)c1 [4a, 3–(3-(4-fluorophenyl)triaz-1-en-1-yl) benzenesulfonamide] | 8050 ± 126 | 858 ± 43 | 365 ± 15 | 9480 ± 348
8 | CCCCOc1ccc(NN=Nc2cccc(S(N)(=O)=O)c2)cc1 [4d, 3–(3-(4-butoxyphenyl)triaz-1-en-1-yl) benzenesulfonamide] | 7430 ± 216 | 519 ± 39 | 618 ± 40 | 5870 ± 314
